Data set [1] relates to Pseudomonas aeruginosa. The data set can be described thus: Antibacterial activity against Pseudomonas aeruginosa PAO1 harbouring delta6 mutant. Format: functional.
Data set [2] relates to Escherichia coli. The data set can be described thus: Antibacterial activity against […] Escherichia coli harbouring TolC-deficient mutant with pore. Format: functional.
Data set [3] has as its system Escherichia coli. Description: Antibacterial activity against wild type Escherichia coli harbouring pore. Format: functional.
In data set [4] the test system is Pseudomonas aeruginosa. Description: Antibacterial activity against Pseudomonas aeruginosa PAO1. Format: functional.
The test system of data set [5] is Pseudomonas aeruginosa. Description: Antibacterial activity against Pseudomonas aeruginosa PAO1 harbouring delta6 mutant with pore. The format is functional.
Data set [6] relates to Escherichia coli. Description: Antibacterial activity against […] Escherichia coli harbouring TolC-deficient mutant. Format: functional.
Data set [7] concerns Pseudomonas aeruginosa. Description: Antibacterial activity against Pseudomonas aeruginosa PAO1 harbouring pore. The format is functional.
Data set [8] concerns Staphylococcus aureus. Description: Antibacterial activity against Staphylococcus aureus. The format is functional. Conditions: for MIC: read-out: MIC.
The next data set relates to A549. The data set can be described thus: (§1) Cytotoxicity against human A549 cells. The format is toxicity, cell-based. Conditions: a549.
Data set [9] deals with Staphylococcus aureus. The data set can be described thus: Antibacterial activity against Staphylococcus aureus ATCC 223. Format: functional.
Data set [10] concerns Staphylococcus aureus. The data set can be described thus: Antibacterial activity against Staphylococcus aureus ATCC 711. The format is functional.
Data set [11] concerns Staphylococcus aureus. Description: Antibacterial activity against Staphylococcus aureus ATCC 716. The format is functional.
For data set [12], the system named is Staphylococcus aureus. Description: Antibacterial activity against Staphylococcus aureus ATCC 216. Format: functional.
For data set [13], the system named is Staphylococcus aureus. The data set can be described thus: Antibacterial activity against Staphylococcus aureus ATCC 701. Format: functional.
Data set [14] concerns Staphylococcus aureus. Description: Antibacterial activity against Staphylococcus aureus ATCC 219. The format is functional.
Data set [15] has as its system Staphylococcus aureus. The data set can be described thus: Antibacterial activity against Staphylococcus aureus ATCC 25923. The format is functional.
Data set [16] in a line: as §1. The format is toxicity, cell-based. Conditions: A549 cells.
The subject of data set [17] is Escherichia coli. Description: Antibacterial activity against Escherichia coli. Format: functional.
In data set [18] the test system is Staphylococcus aureus. The data set can be described thus: Antibacterial activity against Staphylococcus aureus ATCC 217. Format: functional.
For data set [19], the system named is Staphylococcus aureus. The data set can be described thus: Bacteriostatic activity against Staphylococcus aureus ATCC 25923 at 4 times MIC by time kill assay. Format: functional, organism-based.
Data set [20] deals with Staphylococcus aureus. Description: Antibacterial activity against Staphylococcus aureus ATCC 215. The format is functional.
For data set [21], the system named is Staphylococcus aureus. Description: Bacteriostatic activity against Staphylococcus aureus ATCC 25923 at MIC by time kill assay. The format is functional, organism-based.
The test system of data set [22] is Staphylococcus aureus. Description: Bactericidal activity against Staphylococcus aureus ATCC 25923 at 16 times MIC measured after 7 to 24 hrs by time kill assay. The format is functional, organism-based. The conditions noted are these: time 7-24 hrs.
Setting [23] is: Staphylococcus aureus, read-out: MIC80.

Values after ≈ are worked out from the molar mass of the structure shown. Active and inactive are the calls of the source. The rule behind the calls is not given here. A value given as a limit tells only on which side of the number the result lay.

The MIC is the lowest concentration that inhibits growth of the organism. As for `CO[C@@H]1[C@@H](OC(N)=O)[C@@H](O)[C@H](Oc2ccc3c(O)c(NC(=O)c4ccc(O)c(CC=C(C)C)c4)c(=O)oc3c2C)OC1(C)C` [NOVOBIOCIN], the minimal inhibitory concentration (MIC) in the data set on Pseudomonas aeruginosa [1] was 256 µM (≈ 157 µg/mL); with Escherichia coli [2], 0.125 µM (≈ 0.0766 µg/mL); against Escherichia coli [3] it was 64 µM (≈ 39.2 µg/mL); with Pseudomonas aeruginosa [4], more than 512 µM; against Pseudomonas aeruginosa [5] it was 4 µM (≈ 2.45 µg/mL); in the data set on Escherichia coli [6], 1 µM (≈ 0.613 µg/mL).

The MIC80 is the lowest concentration that inhibits either 80% of growth or 80% of the strains tested, depending on the study. Take `Cc1cc(Cl)cc2sc(N(CC3CCCNC3)C(=O)c3ccco3)nc12` (centres undefined): the MIC in the data set with Pseudomonas aeruginosa [1] was more than 200 µM; in the data set with Pseudomonas aeruginosa [7], more than 200 µM; against Escherichia coli [2] it was 50 µM (≈ 19.5 µg/mL); against Escherichia coli [3], 100 µM (≈ 39 µg/mL); in the data set with Pseudomonas aeruginosa [4] it was more than 200 µM; in the data set with Pseudomonas aeruginosa [5], 25 µM (≈ 9.75 µg/mL). This compound also returned an MIC against Escherichia coli [6] of 100 µM (≈ 39 µg/mL). Further, the figures for the MIC80 against Staphylococcus aureus [8] and in the data set with Staphylococcus aureus [8] (setting [23]) were 19.8 µM (≈ 7.72 µg/mL) and 29.6 µM (≈ 11.5 µg/mL), respectively.

The CC50 is the concentration that lowers cell viability or growth by half. Compound `Cc1ccc(C(=O)N(CCCn2ccnc2)c2nc3c(C)cc(Cl)cc3s2)o1` displayed a CC50 in the data set with A549 of 35.2 µM. Besides, the MIC in the data set on Staphylococcus aureus [8] (Staphylococcus aureus) came out at 2.6 µM (≈ 1.08 µg/mL).

In the case of `Cc1cc(Cl)cc2sc(N(CCCn3ccnc3)C(=O)c3ccccc3)nc12`, in the data set with A549, the CC50 turned out to be 37.2 µM. In addition, the MIC in the data set with Staphylococcus aureus [8] (Staphylococcus aureus) came out at 4.9 µM (≈ 2.01 µg/mL).

As to `Cc1ccoc1C(=O)N(CCCn1ccnc1)c1nc2c(C)cc(Cl)cc2s1`, the MIC against Staphylococcus aureus [9] came out at 9.9 µM (≈ 4.11 µg/mL); in the data set on Staphylococcus aureus [10], 14.8 µM (≈ 6.14 µg/mL); in the data set with Staphylococcus aureus [11] it was 14.8 µM (≈ 6.14 µg/mL); in the data set on Staphylococcus aureus [12], 14.8 µM (≈ 6.14 µg/mL); with Staphylococcus aureus [13] it was 14.8 µM (≈ 6.14 µg/mL); with Staphylococcus aureus [8] (Staphylococcus aureus) it was 2.6 µM (≈ 1.08 µg/mL). Further, the minimum inhibitory concentration (MIC) was 22.2 µM (≈ 9.21 µg/mL) with Staphylococcus aureus [14] and 2.6 µM (≈ 1.08 µg/mL) in the data set with Staphylococcus aureus [15]. This compound gave a CC50 in the data set on A549 of 90.2 µM.

Turning to `Cc1cc(Cl)cc2sc(N(CCCn3ccnc3)C(=O)c3ccoc3)nc12`, half-maximal cytotoxicity in the data set on A549 (CC50) was put at 53.4 µM. Further, the MIC in the data set with Staphylococcus aureus [8] (Staphylococcus aureus) was 2.6 µM (≈ 1.04 µg/mL).

In the data set on A549, `Cc1ccc(C(=O)N(CCCn2ccnc2)c2nc3c(C)cc(Cl)cc3s2)s1` yielded a CC50 of 34.1 µM. Besides, the MIC in the data set on Staphylococcus aureus [8] (Staphylococcus aureus) worked out at 16.5 µM (≈ 7.11 µg/mL).

For `Cc1c(Cl)ccc2sc(N(CCCn3ccnc3)C(=O)c3ccco3)nc12`, in [16], the 50% cytotoxic concentration (CC50) came to 27.4 µM. In the data set with Staphylococcus aureus [8] (Staphylococcus aureus), the MIC was 2.6 µM (≈ 1.04 µg/mL).

On to `Cc1cc(Cl)cc2sc(N(CCCn3ccnc3)CC3CC3)nc12`, for which half-maximal cytotoxicity in data set [16] (CC50) was put at 65.6 µM. Also, the MIC80 with Staphylococcus aureus [8] (setting [23]) came to 5.9 µM (≈ 2.13 µg/mL).

Turning to `O=C(c1ccco1)N(CCCn1ccnc1)c1nc2ccc(Cl)nc2s1`, the MIC in the data set on Staphylococcus aureus [8] (Staphylococcus aureus) was more than 100 µM.

In data set [16], `Cc1cccc2sc(N(CCCn3ccnc3)C(=O)c3ccco3)nc12` came in with a CC50 of 84.7 µM. For the same compound, the minimum inhibitory concentration (MIC) with Staphylococcus aureus [8] (Staphylococcus aureus) stood at 7.4 µM (≈ 2.71 µg/mL).

In the case of `Cc1cc(Cl)cc2sc(N(CC3CCNCC3)C(=O)c3ccco3)nc12`, the MIC in the data set with Pseudomonas aeruginosa [1] is 25 µM (≈ 9.75 µg/mL); with Pseudomonas aeruginosa [7], more than 200 µM; against Escherichia coli [2], 50 µM (≈ 19.5 µg/mL); with Escherichia coli [3], 200 µM (≈ 78 µg/mL); with Pseudomonas aeruginosa [4] it was more than 200 µM; against Pseudomonas aeruginosa [5], 25 µM (≈ 9.75 µg/mL). Also, the MIC with Escherichia coli [6] was found to be 50 µM (≈ 19.5 µg/mL); in the data set on Escherichia coli [17] it was 200 µM (≈ 78 µg/mL). Also, the MIC80 turned out to be 19.8 µM (≈ 7.72 µg/mL) against Staphylococcus aureus [8] and 13.2 µM (≈ 5.15 µg/mL) in the data set on Staphylococcus aureus [8] (setting [23]).

For `Cc1cc(Cl)cc2sc(N(CCCn3ccnc3)C(=O)C3(C)CC3)nc12`, in the data set with A549, the cytotoxic concentration (CC50) came out at 54.6 µM. For the same compound, in the data set with Staphylococcus aureus [8] (Staphylococcus aureus), the MIC is 3.3 µM (≈ 1.28 µg/mL).

In data set [16], `O=C(c1ccco1)N(CCCn1ccnc1)c1nc2ccccc2s1` returned a CC50 of 142 µM. For the same compound, the MIC in the data set with Staphylococcus aureus [8] (Staphylococcus aureus) came out at 44.4 µM (≈ 15.6 µg/mL).

In the case of `Cc1cc(Cl)cc2sc(N(CCCn3ccnc3)C(=O)c3ccccn3)nc12`, in the data set on A549, the CC50 came to 44.5 µM. The MIC with Staphylococcus aureus [8] (Staphylococcus aureus) worked out at 7.4 µM (≈ 3.05 µg/mL).

`Cc1cc(Cl)cc2sc(N(CCCn3ccnc3)C(=O)C3CCCO3)nc12` (centres undefined) showed a CC50 in the data set on A549 of 87.6 µM. The MIC in the data set on Staphylococcus aureus [8] (Staphylococcus aureus) turned out to be 13.2 µM (≈ 5.34 µg/mL).

As to `Cc1cc(Cl)cc2sc(N(CCCn3ccnc3)C(=O)c3ccc[nH]3)nc12`, the MIC with Pseudomonas aeruginosa [1] was more than 100 µM; against Pseudomonas aeruginosa [7] it was more than 100 µM; against Escherichia coli [2] it was 0.78 µM (≈ 0.312 µg/mL); in the data set with Staphylococcus aureus [8] (Staphylococcus aureus), 1.7 µM (≈ 0.68 µg/mL); in the data set on Escherichia coli [3] it was more than 200 µM; with Pseudomonas aeruginosa [4] it was more than 100 µM. Besides, the MIC in the data set with Escherichia coli [6] is 1.56 µM (≈ 0.624 µg/mL); in the data set with Escherichia coli [17] it was more than 200 µM. The same compound yielded a CC50 with A549 of more than 100 µM.

`Cc1cc(Cl)cc2sc(N(CCCn3ccnc3)CS(=O)(=O)c3cccs3)nc12` showed a CC50 in data set [16] of 26.3 µM. The MIC80 in the data set with Staphylococcus aureus [8] (setting [23]) was 3.9 µM (≈ 1.82 µg/mL).

Take `Cc1cc(Cl)cc2sc(N(CCCn3ccnc3)C(=O)C3CC3)nc12`: the MIC was 14.8 µM (≈ 5.55 µg/mL) against Staphylococcus aureus [18]; 4.4 µM (≈ 1.65 µg/mL) against Staphylococcus aureus [9]; 50 µM (≈ 18.7 µg/mL) in the data set on Pseudomonas aeruginosa [1]; 4.4 µM (≈ 1.65 µg/mL) in the data set on Staphylococcus aureus [10]; more than 200 µM with Pseudomonas aeruginosa [7]; 4.4 µM (≈ 1.65 µg/mL) in the data set with Staphylococcus aureus [11]. For the same compound, the MIC against Staphylococcus aureus [12] was 4.4 µM (≈ 1.65 µg/mL); with Escherichia coli [2], less than 0.2 µM; against Staphylococcus aureus [13], 4.4 µM (≈ 1.65 µg/mL); in the data set with Staphylococcus aureus [8] (Staphylococcus aureus) it was 3.9 µM (≈ 1.46 µg/mL); in the data set on Escherichia coli [3] it was 200 µM (≈ 75 µg/mL); with Staphylococcus aureus [14], 2.9 µM (≈ 1.09 µg/mL). Also, the MIC with Staphylococcus aureus [20] was 14.8 µM (≈ 5.55 µg/mL); against Pseudomonas aeruginosa [4] it was more than 200 µM; against Pseudomonas aeruginosa [5], 1.56 µM (≈ 0.585 µg/mL); against Staphylococcus aureus [15], 3.9 µM (≈ 1.46 µg/mL); in the data set on Escherichia coli [6], less than 0.2 µM; in the data set on Escherichia coli [17] it was more than 200 µM. For the same compound, the result in the data set on Staphylococcus aureus [19], in the data set with Staphylococcus aureus [21] and in the data set on Staphylococcus aureus [22] was Active.

The values above are taken from ChEMBL document CHEMBL5257105, “Identification and structure-activity relationships for a series of N, N-disubstituted 2-aminobenzothiazoles as potent inhibitors of S. aureus” (Bioorg Med Chem Lett, 2023).
